Where two headings read alike, the source gives them in different places.
Experiments:
[1] = biological target: Cathepsin D (Cat D) (Homo sapiens (Human), UniProt P07339); test: In vitro enzymatic Cathepsin D (Cat D) FRET assay; assay type: biochemical; settings: read-out: CatD IC50
How it was run: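 CHO-expressed recombinant Cat D cleaves a fluorophore/quencher FRET peptide (20 nM) in 0.05 M citrate pH 3.5, 5 mM CHAPS, 10% DMSO final, over 1 h. Tris addition neutralizes pH to stop the reaction; fluorescence read at excitation 500 nm, emission 580 nm.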

[2] = test system: Aβ40 in conditioned medium of cells stably expressing Amyloid Precursor Protein (APP); test: In vitro BACE cell-based assay (Aβ40 sandwich ELISA); settings: Homo sapiens
How it was run: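 Secreted Aβ40 was quantified by sandwich ELISA (pAb40 capture, biotinylated 6E10 detection, Europium time-resolved fluorescence). IC50 derived from percent inhibition versus concentration.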

[3] = biological target: Beta Secretase enzyme (BACE) (Homo sapiens (Human), UniProt P56817); test: In vitro enzymatic BACE FRET assay; assay type: biochemical; settings: read-out: BACE 1 FRET assay IC50
How it was run: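 Reactions ran in 0.05 M acetate pH 4.2 with 10% DMSO final and 100 uM genapol. They were started with 50 nM peptide FRET substrate (fluorophore and quencher flanking the BACE cleavage site) and incubated one hour. Tris addition raised the pH to neutral to stop the reaction before fluorescence reading.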

[4] = test system: Abeta 40 in CSF and brain; test: In vivo inhibition of beta-secretase: Abeta 40 reduction in CSF and brain of the rat; settings: 10 mpk (unless otherwise noted), after 4 hrs
Source text: In Vivo Inhibition of Beta-Secretase
Several animal models, including mouse, rat, dog, and monkey, may be used to screen for inhibition of beta-secretase activity in vivo following administration of a test compound sample. Animals used in this invention can be wild type, transgenic, or gene knockout animals. […] A separate group of animals receive 2% hydroxypropyl methylcellulose, 1% Tween80 alone, containing no test compound, and serve as a vehicle-control group. At the end of the test period, animals are sacrificed and brain tissues, plasma or cerebrospinal fluid are collected. […] Homogenates are centrifuged at 355,000 g, 4° C. for 30 minutes. CSF or brain supernatants are then analyzed for the presence of A-beta peptide by specific sandwich ELISA assays based on ECL (Electrochemiluminescence) technology. For example, rat Abeta40 is measured using biotinylated-4G8 (Signet) as a capture antibody and Fab40 (an in-house antibody specific to the C-terminal of Abeta40) as a detection antibody.
Actual vehicles used: Oral: 2% HPMC, 1% Tween80, pH 2.2

[5] = average IC50, cathepsin D enzyme assay
[6] = HEK293, average IC50, HEK cell assay, read-out: HEK cell assay IC50
[7] = average IC50, BACE enzyme assay
[8] = Abeta 40, rat CSF, read-out: % reduction of rat CSF levels at 10 pmk
[9] = Abeta 40, rat brain, read-out: % reduction of rat brain levels at 10 mpk
[10] = HEK293, average IC50, HEK cells, read-out: HEK cell assay IC50
[11] = HEK293, HEK cells, average, read-out: HEK cell assay IC50

Cathepsin D (Cat D), sequence (P07339 65-412, species assumed): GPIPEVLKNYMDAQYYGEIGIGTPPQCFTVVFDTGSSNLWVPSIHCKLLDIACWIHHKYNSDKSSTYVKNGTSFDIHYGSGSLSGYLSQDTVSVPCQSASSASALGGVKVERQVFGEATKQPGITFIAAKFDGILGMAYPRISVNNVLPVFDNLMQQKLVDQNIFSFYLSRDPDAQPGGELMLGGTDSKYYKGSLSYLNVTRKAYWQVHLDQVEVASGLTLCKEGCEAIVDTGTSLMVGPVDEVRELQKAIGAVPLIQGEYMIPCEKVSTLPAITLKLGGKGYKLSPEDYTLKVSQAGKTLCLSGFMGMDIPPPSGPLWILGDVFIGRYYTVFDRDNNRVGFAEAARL
Beta Secretase enzyme (BACE), sequence (P56817 46-501): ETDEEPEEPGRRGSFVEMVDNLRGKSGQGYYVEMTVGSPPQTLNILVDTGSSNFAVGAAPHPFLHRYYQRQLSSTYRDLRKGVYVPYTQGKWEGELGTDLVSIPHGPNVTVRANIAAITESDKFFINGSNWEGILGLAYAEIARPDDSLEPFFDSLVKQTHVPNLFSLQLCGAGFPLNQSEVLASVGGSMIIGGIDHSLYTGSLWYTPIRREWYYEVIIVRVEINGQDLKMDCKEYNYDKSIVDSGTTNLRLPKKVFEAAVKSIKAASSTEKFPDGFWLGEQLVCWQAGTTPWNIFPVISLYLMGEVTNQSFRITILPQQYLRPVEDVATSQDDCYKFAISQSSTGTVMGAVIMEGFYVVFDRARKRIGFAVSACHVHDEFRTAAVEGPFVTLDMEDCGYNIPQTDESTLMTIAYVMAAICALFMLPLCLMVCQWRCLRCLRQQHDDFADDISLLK

| SMILES | IC50 [1, 5] [µM] | IC50 [2, 6] [µM] | IC50 [3, 7] [µM] | IC50 ([1]; average IC50) [µM] | inhibition in vivo at 10 mg/kg [4, 8] [%] | inhibition in vivo at 10 mg/kg [4, 9] [%] | other results |
| --- | --- | --- | --- | --- | --- | --- | --- |
| C[C@@]1(c2cc(NC(=O)c3ccc(Cl)cn3)cc(F)c2F)C[C@@H](C(F)(F)F)OC(N)=N1 [Example 164, N-(3-((4S,6S)-2-amino-4-methyl-6-(trifluoromethyl)-5,6-dihydro-4H-1,3-oxazin-4-yl)-4,5-difluorophenyl)-5-chloropicolinamide] | 1350 | 0.0052 | 0.024 | – | 77 | 75 | – |
| NC1=N[C@](CF)(c2nc(NC(=O)c3nn(C(F)F)cc3Cl)ccc2F)C[C@@H](C(F)(F)F)O1 [Example 135, N-(6-((4S,6S)-2-amino-4-(fluoromethyl)-6-(trifluoromethyl)-5,6-dihydro-4H-1,3-oxazin-4-yl)-5-fluoropyridin-2-yl)-4-chloro-1-(difluoromethyl)-1H-pyrazole-3-carboxamide] | 1170 | 0.031 | 0.052 | – | 64 | 55 | – |
| N#Cc1cnc(C(=O)Nc2ccc(F)c([C@]3(CF)C[C@@H](C(F)(F)F)OC(N)=N3)c2)c(Cl)c1 [Example 32, N-(3-((4S,6S)-2-amino-4-(fluoromethyl)-6-(trifluoromethyl)-5,6-dihydro-4H-1,3-oxazin-4-yl)-4-fluorophenyl)-3-chloro-5-cyano-2-pyridinecarboxamide] | – | – | – | > 400 | 21 | -3 | IC50 [2, 10]: 0.0544 µM; IC50 ([3]; average IC50): 0.0285 µM |
| Cc1cc(C#N)cnc1C(=O)Nc1ccc(F)c([C@]2(CF)C[C@@H](C(F)(F)F)OC(N)=N2)c1 [Example 51, N-(3-((4S,6S)-2-amino-4-(fluoromethyl)-6-(trifluoromethyl)-5,6-dihydro-4H-1,3-oxazin-4-yl)-4-fluorophenyl)-5-cyano-3-methylpicolinamide] | – | – | – | – | 68 | 59 | – |
| COc1cnc(C(=O)Nc2ccc(F)c([C@]3(CF)C[C@@H](C(F)(F)F)OC(N)=N3)c2)cn1 [Example 2, N-(3-((4S,6S)-2-amino-4-(fluoromethyl)-6-(trifluoromethyl)-5,6-dihydro-4H-1,3-oxazin-4-yl)-4-fluorophenyl)-5-methoxypyrazine-2-carboxamide] | – | – | – | > 400 | 70 | 61 | – |
| COc1ccc(C(=O)Nc2cc(F)c(F)c([C@]3(C)C[C@@H](C(F)(F)F)OC(N)=N3)c2)nc1 [Example 201, N-(3-((4S,6S)-2-amino-4-methyl-6-(trifluoromethyl)-5,6-dihydro-4H-1,3-oxazin-4-yl)-4,5-difluorophenyl)-5-methoxypicolinamide] | – | – | – | – | 75 | 76 | IC50 ([1]; average): 762 µM |
| NC1=N[C@](CF)(c2cc(Nc3cc(Cl)ccn3)ccc2F)C[C@@H](C(F)(F)F)O1 [Example 16, (4S,6S)-4-(5-((4-chloropyridin-2-yl)amino)-2-fluorophenyl)-4-(fluoromethyl)-6-(trifluoromethyl)-5,6-dihydro-4H-1,3-oxazin-2-amine] | 1630 | – | – | – | 83 | 87 | – |
| Cn1cc(NC(=O)c2ccc(C#N)cn2)cc([C@]2(C)C[C@@H](C(F)(F)F)OC(N)=N2)c1=O [Example 149, N-(5-((4S,6S)-2-amino-4-methyl-6-(trifluoromethyl)-5,6-dihydro-4H-1,3-oxazin-4-yl)-1-methyl-6-oxo-1,6-dihydropyridin-3-yl)-5-cyanopicolinamide] | – | – | – | > 400 | – | – | IC50 [2, 10]: 0.021 µM; IC50 ([3]; average IC50): 0.239 µM |
| N#Cc1cccnc1Oc1ccc(F)c([C@]2(CF)C[C@@H](C(F)(F)F)OC(N)=N2)c1 [Example 107, 2-(3-((4S,6S)-2-amino-4-(fluoromethyl)-6-(trifluoromethyl)-5,6-dihydro-4H-1,3-oxazin-4-yl)-4-fluorophenoxy)nicotinonitrile] | – | – | – | 1400 | – | – | IC50 ([2]; HEK293, read-out: HEK cell assay IC50): 3.61 µM; IC50 ([3]; average IC50): 5.87 µM |
| Cc1cc(Cl)cnc1C(=S)Nc1ccc(F)c([C@]2(CF)C[C@@H](C(F)(F)F)OC(N)=N2)c1 [Example 90, N-(3-((4S,6S)-2-amino-4-(fluoromethyl)-6-(trifluoromethyl)-5,6-dihydro-4H-1,3-oxazin-4-yl)-4-fluorophenyl)-5-chloro-3-methylpyridine-2-carbothioamide] | – | – | – | > 400 | – | – | IC50 [2, 10]: 0.909 µM; IC50 ([3]; average IC50): 1.76 µM |
| COc1cccnc1Nc1cc(F)c(F)c([C@]2(C)C[C@@H](C(F)(F)F)OC(N)=N2)c1 [Example 231, (4S,6S)-4-(2,3-difluoro-5-((3-methoxypyridin-2-yl)amino)phenyl)-4-methyl-6-(trifluoromethyl)-5,6-dihydro-4H-1,3-oxazin-2-amine] | – | – | – | – | – | – | IC50 ([1]; average): 282 µM; IC50 [2, 11]: 0.162 µM; IC50 ([3]; average): 0.177 µM |
| Cc1cc(C#N)cnc1C(=O)Nc1cc(C)c(F)c([C@]2(CF)C[C@@H](C(F)(F)F)OC(N)=N2)c1 [Example 219, N-(3-((4S,6S)-2-amino-4-(fluoromethyl)-6-(trifluoromethyl)-5,6-dihydro-4H-1,3-oxazin-4-yl)-4-fluoro-5-methylphenyl)-5-cyano-3-methylpicolinamide] | – | – | – | – | – | – | IC50 ([1]; average): > 400 µM; IC50 [2, 11]: 0.011 µM; IC50 ([3]; average): 0.02 µM |
| NC1=N[C@](CF)(c2cc(NC(=O)c3ccc(Br)cn3)ccc2F)C[C@@H](C(F)(F)F)O1 [Example 52, N-(3-((4S,6S)-2-amino-4-(fluoromethyl)-6-(trifluoromethyl)-5,6-dihydro-4H-1,3-oxazin-4-yl)-4-fluorophenyl)-5-bromopicolinamide] | – | – | – | > 400 | 61 | 54 | – |

Further lines, with some results ahead:

| IC50 [1, 5] [µM] | IC50 [2, 6] [µM] | IC50 [3, 7] [µM] | IC50 ([1]; average IC50) [µM] | SMILES | inhibition in vivo at 10 mg/kg [4, 8] [%] | inhibition in vivo at 10 mg/kg [4, 9] [%] | other results |
| --- | --- | --- | --- | --- | --- | --- | --- |
| 2060 | 0.017 | 0.043 | – | Cc1cc(C(F)F)cnc1C(=O)Nc1cc(F)c(F)c([C@]2(C)C[C@@H](C(F)(F)F)OC(N)=N2)c1 [Example 171, N-(3-((4S,6S)-2-amino-4-methyl-6-(trifluoromethyl)-5,6-dihydro-4H-1,3-oxazin-4-yl)-4,5-difluorophenyl)-5-(difluoromethyl)-3-methylpicolinamide] | 25 | 10 | – |
| 5350 | 0.0098 | 0.078 | – | COc1cnc(C(=O)Nc2cc(F)c(F)c([C@]3(C)C[C@@H](C(F)(F)F)OC(N)=N3)c2)cn1 [Example 165, N-(3-((4S,6S)-2-amino-4-methyl-6-(trifluoromethyl)-5,6-dihydro-4H-1,3-oxazin-4-yl)-4,5-difluorophenyl)-5-methoxypyrazine-2-carboxamide] | 75 | 76 | – |
| 113 | – | – | – | C[C@@]1(c2cc(NC(=O)c3ncc(C#N)cc3Cl)cc(F)c2F)C[C@@H](C(F)(F)F)OC(N)=N1 [Example 167, N-(3-((4S,6S)-2-amino-4-methyl-6-(trifluoromethyl)-5,6-dihydro-4H-1,3-oxazin-4-yl)-4,5-difluorophenyl)-3-chloro-5-cyanopicolinamide] | 42 | 15 | – |
| > 400 | 0.0089 | 0.037 | – | COc1cnc(C(=O)Nc2cc(F)c(F)c([C@]3(C)C[C@@H](C(F)(F)F)OC(N)=N3)c2)c(Cl)c1 [Example 169, N-(3-((4S,6S)-2-amino-4-methyl-6-(trifluoromethyl)-5,6-dihydro-4H-1,3-oxazin-4-yl)-4,5-difluorophenyl)-3-chloro-5-methoxypicolinamide] | 48 | 46 | – |
| > 400 | 0.036 | 0.014 | – | C[C@@]1(c2cc(Nc3nccc4cc(C#N)cnc34)cc(F)c2F)C[C@@H](C(F)(F)F)OC(N)=N1 [Example 180, 8-((3-((4S,6S)-2-amino-4-methyl-6-(trifluoromethyl)-5,6-dihydro-4H-1,3-oxazin-4-yl)-4,5-difluorophenyl)amino)-1,7-naphthyridine-3-carbonitrile] | – | – | – |
